Test system: KM12
Assay: Antiproliferative activity against human KM12 cells expressing TPM3-TRKA assessed as reduction in cell viability measured after 3 days by Celltiter-Glo assay
Format: functional, cell-based
Conditions: KM12, 72 h

## O=C1CCC(N2C(=O)c3cccc(NCCCC(=O)N4CCN(c5ccc(C(=O)Nc6n[nH]c7ccc(Cc8cc(F)cc(F)c8)cc67)c(NC6CCOCC6)c5)CC4)c3C2=O)C(=O)N1 (stereo not given)
  IC50: 1.5 nM

## O=C(CN1CCN(c2cccc(-c3cnc4ccc(N5CCC[C@@H]5c5cccc(F)c5)nn34)n2)CC1)NCCNc1ccc2c(c1)C(=O)N(C1CCC(=O)NC1=O)C2=O (stereo not given in full)
  IC50: 0.9 nM

## O=C1CCC(N2C(=O)c3ccc(NCCCCC(=O)N4CCN(c5cccc(-c6cnc7ccc(N8CCC[C@@H]8c8cccc(F)c8)nn67)n5)CC4)cc3C2=O)C(=O)N1 (stereo not given in full)
  IC50: 0.9 nM

## O=C(CN1CCN(c2cccc(-c3cnc4ccc(N5CCC[C@@H]5c5cccc(F)c5)nn34)n2)CC1)NCCOCCNc1cccc2c1C(=O)N(C1CCC(=O)NC1=O)C2=O (stereo not given in full)
  IC50: 3.8 nM

## O=C(CN1CCN(c2cccc(-c3cnc4ccc(N5CCC[C@@H]5c5cccc(F)c5)nn34)n2)CC1)NCCOCCNc1ccc2c(c1)C(=O)N(C1CCC(=O)NC1=O)C2=O (stereo not given in full)
  IC50: 0.9 nM

## OC1CCN(c2cc(-c3cccc(-c4cnc5ccc(N6CCC[C@@H]6c6cccc(F)c6)nn45)n3)ccn2)CC1
  IC50: 46.7 nM

## CN1CCN(c2ccc(C(=O)Nc3n[nH]c4ccc(Cc5cc(F)cc(F)c5)cc34)c(NC3CCOCC3)c2)CC1 [ENTRECTINIB]
  IC50: 4.3 nM

## O=C1CCC(N2C(=O)c3ccc(N4CC(C(=O)N5CCN(c6cccc(-c7cnc8ccc(N9CCC[C@@H]9c9cccc(F)c9)nn78)n6)CC5)C4)cc3C2=O)C(=O)N1 (stereo not given in full)
  IC50: 2 nM

## O=C1CCC(N2C(=O)c3ccc(NCCN4CCN(c5cccc(-c6cnc7ccc(N8CCC[C@@H]8c8cccc(F)c8)nn67)n5)CC4)cc3C2=O)C(=O)N1 (stereo not given in full)
  IC50: 3.4 nM

## O=C1CCC(N2C(=O)c3ccc(NCCOCCOCCOCCOCCC(=O)N4CCN(c5ccc(C(=O)Nc6n[nH]c7ccc(Cc8cc(F)cc(F)c8)cc67)c(NC6CCOCC6)c5)CC4)cc3C2=O)C(=O)N1 (stereo not given)
  IC50: 1.6 nM

— ChEMBL document CHEMBL4616688, “PROTAC Compounds Targeting TRK for Use in Cancer Therapeutics” (ACS Med Chem Lett, 2020)
